Test results from patent US11040976B2, “Substrate selective inhibitors of insulin-degrading enzyme (IDE) and uses thereof” (President and Fellows of Harvard College, priority 2015, dated 2021).

How the values were obtained:
[1] = target: T1, recombinant human IDE42-1019 (Homo sapiens, UniProt P14735); assay: Protease assay with fluorogenic peptide substrate Mca-[…](Dnp)-OH; format: biochemical; conditions: for IC50: fluorogenic peptide Mca-RPPGFSAFK(Dnp)-OH, apparent IC50 for compounds with submaximal inhibition, read-out: IC50 (μM) Proteolysis
T1 construct: recombinant human IDE42-1019 (R&D Systems); purchased R&D Systems
T1 sequence (P14735 42-1019): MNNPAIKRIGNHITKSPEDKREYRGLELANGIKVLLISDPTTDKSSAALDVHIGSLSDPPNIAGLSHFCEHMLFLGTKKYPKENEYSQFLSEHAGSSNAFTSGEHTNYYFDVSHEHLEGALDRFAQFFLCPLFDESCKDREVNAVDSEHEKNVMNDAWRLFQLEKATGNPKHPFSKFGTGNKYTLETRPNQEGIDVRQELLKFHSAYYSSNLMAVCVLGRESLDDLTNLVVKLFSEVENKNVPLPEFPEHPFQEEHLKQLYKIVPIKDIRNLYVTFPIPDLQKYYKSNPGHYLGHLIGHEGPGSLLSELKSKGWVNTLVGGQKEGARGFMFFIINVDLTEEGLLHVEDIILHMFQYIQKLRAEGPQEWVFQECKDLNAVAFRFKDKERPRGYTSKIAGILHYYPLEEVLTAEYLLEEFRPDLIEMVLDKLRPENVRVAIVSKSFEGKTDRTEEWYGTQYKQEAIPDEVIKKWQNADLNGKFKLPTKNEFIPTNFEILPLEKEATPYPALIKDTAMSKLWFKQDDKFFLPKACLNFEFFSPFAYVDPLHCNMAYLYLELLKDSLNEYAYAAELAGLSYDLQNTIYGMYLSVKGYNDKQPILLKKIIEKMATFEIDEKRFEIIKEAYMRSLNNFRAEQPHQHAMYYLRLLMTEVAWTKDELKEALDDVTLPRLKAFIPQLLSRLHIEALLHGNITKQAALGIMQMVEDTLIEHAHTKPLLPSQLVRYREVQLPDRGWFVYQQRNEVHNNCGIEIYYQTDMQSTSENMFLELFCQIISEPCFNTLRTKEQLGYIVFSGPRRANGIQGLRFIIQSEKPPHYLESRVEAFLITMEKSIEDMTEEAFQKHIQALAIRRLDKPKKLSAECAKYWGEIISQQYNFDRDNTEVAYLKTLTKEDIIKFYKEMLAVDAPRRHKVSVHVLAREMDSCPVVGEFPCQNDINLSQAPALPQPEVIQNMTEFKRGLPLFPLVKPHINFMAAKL

[2] = target: T2, Human N-His6-IDE42-1019 (E. coli expressed) (Homo sapiens, UniProt P14735); assay: Fluorescence anisotropy high-throughput screening assay (displacement of probe FL-6b); format: binding; conditions: final compound concentration 20 μM (6bK control 1 μM); values without asterisk
T2 construct: Human N-His6-IDE42-1019 (E. coli expressed); made in house; host or cells: E. coli (Rosetta 2 (DE3) pLysS, plasmid pTrcHis-A)
T2 sequence (P14735 42-1019): T1 sequence (P14735 42-1019)
Outline: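 Compounds at 20 μM final were added to 0.5 μM enzyme with fluorescein-labelled macrocycle probe ([…]) in 50 mM Tris pH 8.0, 1 M NaCl, 25 °C. Anisotropy (ex 492/em 523 nm) was read after 30 min in duplicate. Z-scores were calculated against plate DMSO controls.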

NCCCC[C@@H]1NC(=O)/C=C/C(=O)N[C@H](C(N)=O)CCCCNC(=O)[C@@H](Cc2ccc(C(=O)c3ccccc3)cc2)NC(=O)[C@H](CC2CCCCC2)NC1=O [6bK, reference compound] was tested, and the IC50 [1] was 0.05 µM, the Emax ([1]; read-out: Imax (%) Proteolysis (inhibition maximum), fluorogenic peptide Mca-RPPGFSAFK(Dnp)-OH, plateau at high inhibitor concentration) was 100% and the “Average Z-score (Fluorescence anisotropy)” value [2] was −24.52.
For Cc1cccc(-c2ccc([C@@H]3[C@@H](CO)N4CCCCN(S(=O)(=O)c5ccccc5C)C[C@@H]34)cc2)c1 [compound 297], the IC50 [1] was 0.25 µM and the “Average Z-score (Fluorescence anisotropy)” value [2] was −20.26.
